Results published in patent US12643867B2, “Compositions and uses thereof” (University of Virginia Patent Foundation, priority 2017, dated 2026).

Legend:
Format in all cases: cell-based
human PKCa (hPKCa) = biological target: T1, human PKCa (hPKCa) (Homo sapiens, UniProt P17252); assay: JWB003 labeling of C1 domain protein kinases; conditions: transfected HEK293T cells
T1 construct: expressed in transfected cells; host or cells: HEK293T
Protocol: (§1) • 1. HEK293T cells were harvested in cold PBS. • a. Cells were transferred to Eppendorf tube. • 2. Cells were lysed via tip sonicator. • 3. Cells were fractionated into membrane and soluble fraction. • a. 100,000×G for 45 minutes at 4 degree. • b. Supernatant was separated from cell pellet. • 4. Dilute proteomes to 1 mg/mL in PBS and aliquot appropriate reaction volume (49 μL for probe only; 48 μL for competition+probe) • 5. Cells were treated with 50× inhibitor. • a. Incubated for 1Hr at 37 degree. • 6. Cells were treated with 50× Probe (JWB003). • a. Incubated for 1Hr at 37 degree. • 7. Add 6 μL of master mix to each alkyne probe-labeled sample. • a. 1 μL of 1.25 mM Rh-N3 • b. 1 μL of fresh 50 mM TCEP • c. 3 μL of 1.7 mM TBTA stock • d. 1 μL of 50 mM CuSO4 • 8. Vortex samples. • 9. Incubate at room temperature for 1 hr • 10. Quench with 17 μL of 4×SDS-PAGE loading buffer+βME and vortex tubes. • 11. Analyze 30 μL samples by SDS-PAGE immediately. [B] Labeling HEK293T Cells to Determine Target Proteins of JWB003 in Live Cells (In Situ) • 1. Complete media was removed from HEK293T cells and replaced with serum free media containing JWB003 at the appropriate final concentration • a. Cells were placed in incubator for appropriate time at 37 degree 5% CO2 • 2. Cells were washed • a. 2× warm PBS • b. 2× cold PBS • c. Harvest cells in cold PBS • 3. Cells were transferred to Eppendorf tube • 4. […]

[1] = tested on: recombinant DGK isoforms (total of 10); assay: JWB003 labeling in live cells (in situ); conditions: live HEK293T cells
Protocol: as §1

recombinant hDGKa = biological target: T2, recombinant hDGKa (Homo sapiens, UniProt P23743); assay: JWB003 labeling in live cells (in situ); conditions: 25 μM; transfected HEK293T cells
T2 construct: expressed in transfected cells; host or cells: HEK293T
T2 sequence (P23743 whole entry): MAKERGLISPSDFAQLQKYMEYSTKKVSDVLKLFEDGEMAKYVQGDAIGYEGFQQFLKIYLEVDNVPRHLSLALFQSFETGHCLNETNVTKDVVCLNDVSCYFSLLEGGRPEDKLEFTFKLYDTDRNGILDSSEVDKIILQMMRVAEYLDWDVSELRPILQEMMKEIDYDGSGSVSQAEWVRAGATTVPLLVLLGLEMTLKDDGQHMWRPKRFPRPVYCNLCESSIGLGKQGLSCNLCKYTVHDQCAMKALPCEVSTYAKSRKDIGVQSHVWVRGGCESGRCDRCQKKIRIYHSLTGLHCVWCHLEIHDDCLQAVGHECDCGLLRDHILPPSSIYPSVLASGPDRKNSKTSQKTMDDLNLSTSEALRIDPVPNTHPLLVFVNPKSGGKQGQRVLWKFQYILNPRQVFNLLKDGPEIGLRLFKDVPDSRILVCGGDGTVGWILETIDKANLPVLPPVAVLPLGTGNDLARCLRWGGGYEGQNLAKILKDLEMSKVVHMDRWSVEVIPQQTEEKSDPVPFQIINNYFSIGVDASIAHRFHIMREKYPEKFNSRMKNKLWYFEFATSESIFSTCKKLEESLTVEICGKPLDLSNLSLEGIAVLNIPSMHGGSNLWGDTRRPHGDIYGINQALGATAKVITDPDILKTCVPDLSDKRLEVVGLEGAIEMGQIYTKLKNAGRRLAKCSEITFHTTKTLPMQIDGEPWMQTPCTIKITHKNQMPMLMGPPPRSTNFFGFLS
Protocol: as §1

[2] = tested on: Bone Marrow Derived Macrophages (BMDMs), noncancerous primary cells; assay: WST-1 Cell Proliferation Assay; conditions: ritanserin highest concentration tested 50 μM; staurosporine 1 μM
H1650 cells = assay: WST-1 Cell Proliferation Assay; conditions: ritanserin, ketanserin 5-50 μM; staurosporine 1 μM
Protocol: (§2) WST-1 Cell Proliferation Assays. Tumor cells were plated in transparent tissue-culture treated 96-well plates at a density of 100,000 cells/mL (A549, H1650) or 200,000 cells/mL (H82) in a volume of 100 μL per well. Cells were treated with dimethyl sulfoxide (DMSO) vehicle or inhibitors dissolved in DMSO at the indicated concentrations (final DMSO concentration of 0.5%). Cells were allowed to grow for indicated times at 37° C. under 5% CO2. Afterwards, equal parts of WST-1 developer reagent and electron mediator solution were mixed and 10 μL of the resulting solution (‘WST-1 reagent’) were added to each well. Plates were shaken in an orbital shaker for 60 s and then returned to the incubator for two hrs. Plates were again shaken followed measurement of absorbance at 450 nm. Data were normalized to DMSO-treated wells and significance values determined with one-way ANOVA.

H82 cells = assay: WST-1 Cell Proliferation Assay; conditions: ritanserin, ketanserin 5-50 μM; staurosporine 1 μM
Protocol: as §2

A549 cells = assay: WST-1 Cell Proliferation Assay; conditions: ritanserin, ketanserin 5-50 μM; staurosporine 1 μM
Protocol: as §2

| time at which probe labeling of hDGKa saturates (recombinant hDGKa) [min] | Compound | labeling of hPKCa (human PKCa (hPKCa)) | labeling of recombinant DGK isoforms [1] | cell killing of noncancerous primary cells (WST-1), words [2] | cell viability (WST-1), words (H1650 cells) | cell viability (WST-1), words (H82 cells) | cell viability (WST-1), words (A549 cells) |
| --- | --- | --- | --- | --- | --- | --- | --- |
| 60 | C#CCCC(=O)NCCN1CCN(C/C=C/C(=O)N2CCC(=C(c3ccc(F)cc3)c3ccc(F)cc3)CC2)CC1 [JWB003] | labeling of hPKCa in the membrane but not soluble fraction | effective labeling of all ten proteins in live cells |  |  |  |  |
|  | CN[C@@H]1C[C@H]2O[C@@](C)([C@@H]1OC)n1c3ccccc3c3c4c(c5c6ccccc6n2c5c31)C(=O)NC4 [Staurosporine] |  |  | general cytotoxicity across all cells tested | general cytotoxicity across all cells tested | general cytotoxicity across all cells tested | general cytotoxicity across all cells tested |
